Assay results published in ChEMBL document CHEMBL5236608, “Discovery and Optimization of Potent and Orally Available CTP Synthetase Inhibitors for Use in Treatment of Diseases Driven by Aberrant Immune Cell Proliferation” (J Med Chem, 2022).
Values belong to the compound of their own block, whether it stands above or below them.

Legend:
[1] = in vivo; conditions: CD-1, mouse, po, 10 mg/kg
[2] = in vitro; conditions: human, Caco-2
[3] = in vivo; conditions: CD-1, mouse, po, 10 mg/kg; remark: listed apart in the source
[4] = in vivo; conditions: CD-1, mouse, po, 10 mg/kg; remark: listed apart in the source
[5] = in vitro; conditions: mouse, hepatocytes
[6] = physchem
[7] = Dose normalized AUC(0 to t) in collagen-induced arthritis mouse at 10 mg/kg, po measured at day 9; type: ADME, organism-based; conditions: in vivo, 216 h, time 9 day
[8] = Dose normalized AUC(0 to t) in collagen-induced arthritis mouse at 10 mg/kg, po measured at day 2; type: ADME, organism-based; conditions: in vivo, 48 h, time 2 day
[9] = AUC(0 to t) in collagen-induced arthritis mouse at 50 mg/kg, po measured at day 2; type: ADME, organism-based; parameters: dose 50 mg/kg, time 2 day, route po; conditions: in vivo
[10] = Cmax in collagen-induced arthritis mouse at 50 mg/kg, po measured at day 2; type: ADME, organism-based; parameters: dose 50 mg/kg, time 2 day, route po; conditions: in vivo
[11] = AUC(0 to t) in collagen-induced arthritis mouse at 10 mg/kg, po measured at day 19; type: ADME, organism-based; parameters: dose 10 mg/kg, time 19 day, route po; conditions: in vivo
[12] = Cmax in collagen-induced arthritis mouse at 10 mg/kg, po measured at day 2; type: ADME, organism-based; parameters: dose 10 mg/kg, time 2 day, route po; conditions: in vivo
[13] = Dose normalized AUC(0 to t) in collagen-induced arthritis mouse at 50 mg/kg, po measured at day 2; type: ADME, organism-based; conditions: in vivo, 48 h, time 2 day
[14] = Dose normalized AUC(0 to t) in collagen-induced arthritis mouse at 50 mg/kg, po measured at day 9; type: ADME, organism-based; conditions: in vivo, 216 h, time 9 day
[15] = Dose normalized AUC(0 to t) in collagen-induced arthritis mouse at 10 mg/kg, po measured at day 19; type: ADME, organism-based; conditions: in vivo, 456 h, time 19 day
[16] = Cmax in collagen-induced arthritis mouse at 10 mg/kg, po measured at day 19; type: ADME, organism-based; parameters: dose 10 mg/kg, time 19 day, route po; conditions: in vivo
[17] = Dose normalized AUC(0 to t) in collagen-induced arthritis mouse at 50 mg/kg, po measured at day 19; type: ADME, organism-based; conditions: in vivo, 456 h, time 19 day
[18] = Cmax in collagen-induced arthritis mouse at 50 mg/kg, po measured at day 19; type: ADME, organism-based; parameters: dose 50 mg/kg, time 19 day, route po; conditions: in vivo
[19] = Cmax in collagen-induced arthritis mouse at 50 mg/kg, po measured at day 9; type: ADME, organism-based; parameters: dose 50 mg/kg, time 9 day, route po; conditions: in vivo
[20] = Lipophilicity, logD of the compound at pH 7.4; type: physicochemical; conditions: buffer
[21] = Cmax in collagen-induced arthritis mouse at 10 mg/kg, po measured at day 9; type: ADME, organism-based; parameters: time 9 day, dose 10 mg/kg, route po; conditions: in vivo
[22] = AUC(0 to t) in collagen-induced arthritis mouse at 50 mg/kg, po measured at day 19; type: ADME, organism-based; parameters: dose 50 mg/kg, time 19 day, route po; conditions: in vivo
[23] = AUC(0 to t) in collagen-induced arthritis mouse at 10 mg/kg, po measured at day 9; type: ADME, organism-based; parameters: time 9 day, dose 10 mg/kg, route po; conditions: in vivo
[24] = AUC(0 to t) in collagen-induced arthritis mouse at 10 mg/kg, po measured at day 2; type: ADME, organism-based; parameters: time 2 day, dose 10 mg/kg, route po; conditions: in vivo
[25] = AUC(0 to t) in collagen-induced arthritis mouse at 50 mg/kg, po measured at day 9; type: ADME, organism-based; parameters: time 9 day, dose 50 mg/kg, route po; conditions: in vivo

- Cmax [1]: 11.1 µM
- Papp A→B at 2 h, 10 µM [2]: 9.9 ×10⁻⁶ cm/s
- AUC(0-t) [3]: 56.1 µM·h
- bioavailability [4]: 95%
- hepatocyte CLint at 1 h, 1 µM [5]: < 1 µL/min/1e6 cells
SMILES: CC(C)(C(=O)Nc1ccc(-c2cncc(C(F)(F)F)n2)cc1F)c1csc(NS(=O)(=O)C2CC2)n1

- Cmax [1]: 0.9 µM
- AUC(0-t) [3]: 2.34 µM·h
- bioavailability [4]: 35%
- hepatocyte CLint at 1 h, 1 µM [5]: 32 µL/min/1e6 cells
SMILES: CCCOc1ccc(NC(=O)C(C)(C)c2csc(NS(=O)(=O)C3CC3)n2)cc1

SMILES: CS(=O)(=O)Nc1nc(CC(=O)Nc2cccc(Cl)c2)cs1
- pKa [6]: 6.58

- AUCt/dose [7]: 1188 ng·h/mL
- AUCt/dose [8]: 1503 ng·h/mL
- AUC(0-t) at 48 h [9]: 43700 ng·h/mL
- Cmax [10]: 7830 ng/mL
- AUC(0-t) at 456 h [11]: 10500 ng·h/mL
- Cmax [12]: 4770 ng/mL
- AUCt/dose [13]: 873 ng·h/mL
- AUCt/dose [14]: 587 ng·h/mL
- Cmax [1]: 5.3 µM
- AUCt/dose [15]: 1049 ng·h/mL
- Papp A→B at 2 h, 10 µM [2]: 7.1 ×10⁻⁶ cm/s
- Cmax [16]: 3570 ng/mL
- pKa [6]: 6.26
- AUC(0-t) [3]: 25.3 µM·h
- AUCt/dose [17]: 1052 ng·h/mL
- Cmax [18]: 13000 ng/mL
- hepatocyte CLint at 1 h, 1 µM [5]: 8 µL/min/1e6 cells
- Cmax [19]: 6390 ng/mL
- logD [20]: 2.46
- Cmax [21]: 3360 ng/mL
- AUC(0-t) at 456 h [22]: 52600 ng·h/mL
- AUC(0-t) at 216 h [23]: 11900 ng·h/mL
- AUC(0-t) at 48 h [24]: 15000 ng·h/mL
- AUC(0-t) at 216 h [25]: 29400 ng·h/mL
SMILES: CC(C)(C(=O)Nc1ccc(-c2cncc(C(F)(F)F)n2)cn1)c1csc(NS(=O)(=O)C2CC2)n1
